Measured values from article PMC11845477, “Exploring the principles behind antibiotics with limited resistance” (Nature Communications, 2025).
Where a SMILES comes first, the peptide text is derived from it. Bridges are numbered along the chain shown (N, C = ends). [ ]: non-standard residue; d: D form. The star is where a group is joined. X1 = NC[C@@H](CC(=O)*)c1cccc(Cl)c1; Dab = NCC[C@H](N)C(=O)O; Dap = NC[C@H](N)C(=O)O

System: A. baumannii ATCC 17978 (SEN) and A. baumannii ATCC BAA-1605 (MDR)
Experiment: Adaptive laboratory evolution (ALE), relative MIC of evolved lines
Format: cell-based, Acinetobacter baumannii
In short: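 Ten parallel populations per antibiotic–ancestor pair were evolved in MHB at 37 °C, starting near 50% growth-inhibiting drug. Every 72 h they were passaged into 0.5–2.5× increasing concentrations, keeping the highest-drug well with OD600 > 0.2.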

[1] = AB-MDR (Acinetobacter baumannii ATCC BAA 1605), evolved line 2
[2] = AB-SEN (Acinetobacter baumannii ATCC 17978), evolved line 1
[3] = AB-SEN (Acinetobacter baumannii ATCC 17978), evolved line 3
[4] = AB-SEN (Acinetobacter baumannii ATCC 17978), evolved line 5
[5] = AB-SEN (Acinetobacter baumannii ATCC 17978), evolved line 8
[6] = AB-SEN (Acinetobacter baumannii ATCC 17978), evolved line 9

Compound: CC(C)C[C@@H]1NC(=O)[C@@H](Cc2ccccc2)NC(=O)[C@H](CCN)NC(=O)[C@@H](NC(=O)[C@H](CN)NC(=O)[C@@H](NC(=O)C[C@H](CN)c2cccc(Cl)c2)[C@@H](C)O)CCNC(=O)[C@H]([C@@H](C)O)NC(=O)[C@H](CCN)NC(=O)[C@H](CCN)NC1=O [SPR206] (X1-T[Dap][Dab][Dab][dF]L[Dab][Dab]T; lactam 3-C (inferred); N-terminus assumed)
- Relative MIC (AB-MDR (ATCC BAA 1605), evolved line 1, evolved vs ancestor): 2048
- Relative MIC (AB-MDR (ATCC BAA 1605), evolved line 2, evolved vs ancestor): 8192
- Relative MIC (AB-MDR (ATCC BAA 1605), evolved line 3, evolved vs ancestor): 512
- Relative MIC (AB-MDR (ATCC BAA 1605), evolved line 4, evolved vs ancestor): 2048
- Relative MIC (AB-MDR (ATCC BAA 1605), evolved line 5, evolved vs ancestor): 8192
- Relative MIC (AB-MDR (ATCC BAA 1605), evolved line 6, evolved vs ancestor): 8192
- Relative MIC (AB-MDR (ATCC BAA 1605), evolved line 7, evolved vs ancestor): 8192
- Relative MIC (AB-MDR (ATCC BAA 1605), evolved line 8, evolved vs ancestor): 4096
- Relative MIC (AB-MDR (ATCC BAA 1605), evolved line 9, evolved vs ancestor): 8192
- Relative MIC (AB-MDR (ATCC BAA 1605), evolved line 10, evolved vs ancestor): 1024
- Relative MIC (AB-MDR (Acinetobacter baumannii ATCC BAA 1605), evolved line 1): 2048
- Relative MIC [1]: 8192
- Relative MIC (log10) [1]: 3.913 log10
- Relative MIC (log10) (AB-MDR (Acinetobacter baumannii ATCC BAA 1605), evolved line 5): 3.913 log10
- Relative MIC (log10) (AB-MDR (Acinetobacter baumannii ATCC BAA 1605), evolved line 6): 3.913 log10
- Relative MIC (log10) (AB-MDR (Acinetobacter baumannii ATCC BAA 1605), evolved line 7): 3.913 log10
- Relative MIC (log10) (AB-MDR (Acinetobacter baumannii ATCC BAA 1605), evolved line 9): 3.913 log10
- MIC of evolved line (AB-MDR ATCC BAA 1605, evolved line 1): 256 µg/mL
- MIC of evolved line (AB-MDR ATCC BAA 1605, evolved line 2): 1020 µg/mL
- MIC of evolved line (AB-MDR ATCC BAA 1605, evolved line 3): 64 µg/mL
- MIC of evolved line (AB-MDR ATCC BAA 1605, evolved line 4): 256 µg/mL
- MIC of evolved line (AB-MDR ATCC BAA 1605, evolved line 5): 1020 µg/mL
- MIC of evolved line (AB-MDR ATCC BAA 1605, evolved line 6): 1020 µg/mL
- MIC of evolved line (AB-MDR ATCC BAA 1605, evolved line 7): 1020 µg/mL
- MIC of evolved line (AB-MDR ATCC BAA 1605, evolved line 8): 512 µg/mL
- MIC of evolved line (AB-MDR ATCC BAA 1605, evolved line 9): 1020 µg/mL
- MIC of evolved line (AB-MDR ATCC BAA 1605, evolved line 10): 128 µg/mL
- MIC of evolved line (AB-SEN (A. baumannii ATCC 17978), evolved line 1 of the given antibiotic): 256 µg/mL
- Relative MIC (AB-SEN (A. baumannii ATCC 17978), evolved line 1 vs ancestor): 2048
- MIC of evolved line (AB-SEN (A. baumannii ATCC 17978), evolved line 2 of the given antibiotic): 1020 µg/mL
- Relative MIC (AB-SEN (A. baumannii ATCC 17978), evolved line 2 vs ancestor): 8192
- MIC of evolved line (AB-SEN (A. baumannii ATCC 17978), evolved line 3 of the given antibiotic): 64 µg/mL
- Relative MIC (AB-SEN (A. baumannii ATCC 17978), evolved line 3 vs ancestor): 512
- MIC of evolved line (AB-SEN (A. baumannii ATCC 17978), evolved line 4 of the given antibiotic): 256 µg/mL
- Relative MIC (AB-SEN (A. baumannii ATCC 17978), evolved line 4 vs ancestor): 2048
- MIC of evolved line (AB-SEN (A. baumannii ATCC 17978), evolved line 5 of the given antibiotic): 1020 µg/mL
- Relative MIC (AB-SEN (A. baumannii ATCC 17978), evolved line 5 vs ancestor): 8192
- MIC of evolved line (AB-SEN (A. baumannii ATCC 17978), evolved line 6 of the given antibiotic): 1020 µg/mL
- Relative MIC (AB-SEN (A. baumannii ATCC 17978), evolved line 6 vs ancestor): 8192
- MIC of evolved line (AB-SEN (A. baumannii ATCC 17978), evolved line 7 of the given antibiotic): 1020 µg/mL
- Relative MIC (AB-SEN (A. baumannii ATCC 17978), evolved line 7 vs ancestor): 8192
- MIC of evolved line (AB-SEN (A. baumannii ATCC 17978), evolved line 8 of the given antibiotic): 512 µg/mL
- Relative MIC (AB-SEN (A. baumannii ATCC 17978), evolved line 8 vs ancestor): 4096
- MIC of evolved line (AB-SEN (A. baumannii ATCC 17978), evolved line 9 of the given antibiotic): 1020 µg/mL
- Relative MIC (AB-SEN (A. baumannii ATCC 17978), evolved line 9 vs ancestor): 8192
- MIC of evolved line (AB-SEN (ATCC 17978), evolved line 10): 128 µg/mL
- Relative MIC (AB-SEN (ATCC 17978), evolved line 10, evolved vs ancestor): 1024
- Relative MIC [2]: 2048
- Relative MIC (log10) [2]: 3.311 log10
- Relative MIC (AB-SEN (Acinetobacter baumannii ATCC 17978), evolved line 2): 8192
- Relative MIC [3]: 512
- Relative MIC (log10) [3]: 2.709 log10
- Relative MIC (AB-SEN (Acinetobacter baumannii ATCC 17978), evolved line 4): 2048
- Relative MIC [4]: 8192
- Relative MIC (log10) [4]: 3.913 log10
- Relative MIC (AB-SEN (Acinetobacter baumannii ATCC 17978), evolved line 6): 8192
- Relative MIC [5]: 4096
- Relative MIC (log10) [5]: 3.612 log10
- Relative MIC [6]: 8192
- Relative MIC (log10) [6]: 3.913 log10
- Relative MIC (AB-SEN (Acinetobacter baumannii ATCC 17978), evolved line 10): 1024
- Relative MIC (AB-SEN, Acinetobacter baumannii ATCC 17978, evolved line 7): 8192
- Relative MIC (ALE, A. baumannii ATCC 17978 (AB-SEN), evolved line 1): 2048
- Relative MIC (ALE, A. baumannii ATCC 17978 (AB-SEN), evolved line 2): 8192
- Relative MIC (ALE, A. baumannii ATCC 17978 (AB-SEN), evolved line 3): 512
- Relative MIC (ALE, A. baumannii ATCC 17978 (AB-SEN), evolved line 4): 2048
- Relative MIC (ALE, A. baumannii ATCC 17978 (AB-SEN), evolved line 5): 8192
- Relative MIC (ALE, A. baumannii ATCC 17978 (AB-SEN), evolved line 6): 8192
- Relative MIC (ALE, A. baumannii ATCC 17978 (AB-SEN), evolved line 7): 8192
